Results from patent US4921850A, “3-propenylcephem derivative” (Eisai Co., Ltd., priority 1986, dated 1990).
Converted amounts (≈) assume the structure as drawn. Read-outs that look alike come from different tables or passages of the source.

Legend:
Experiment in all cases: Anti-bacterial activity (MIC), agar dilution
Format in all cases: cell-based
Kleb. pneumoniae EK-6 = conditions: Kleb. pneumoniae EK-6, agar dilution, about 10^6 CFU/ml, 18 hours, 37° C.
Description: (§1) MIC (μg/ml) were determined by an agar dilution method [Chemotherapy (Japan), 29, 76-79, 1981]. Overnight cultures of the bacterial strains in Mueller-Hinton broth were diluted to final concentration of about 10^6 CFU/ml, and 5 μl of each bacterial suspension was spotted onto Mueller-Hinton agar plates that contained twofold serial dilutions of antibiotics. MICs were measured after incubation for 18 hours at 37° C.

Pseud. aeruginosa EP-01 = tested on: Pseud. aeruginosa EP-01
Description: as §1

Staph. aureus 209-P = tested on: Staph. aureus 209-P
Description: as §1

Escher. coli NIHJ = tested on: Escher. coli NIHJ
Description: as §1

Ser. marcescens ES-75 = tested on: Ser. marcescens ES-75
Description: as §1

[1] = tested on: Morganella morganii EP-14; conditions: 37° C.
Description: as §1

[2] = Pseudomonas aeruginosa, EP01, 18 h, Pseud. aeruginosa EP-01, agar dilution, about 10^6 CFU/ml, 18 hours, 37° C., read-out: MIC
[3] = Staph. aureus 209-P, agar dilution, about 10^6 CFU/ml, 18 hours, 37° C.
[4] = Escherichia coli, 18 h, Escher. coli NIHJ, agar dilution, about 10^6 CFU/ml, 18 hours, 37° C., read-out: MIC
[5] = Ser. marcescens ES-75, agar dilution, about 10^6 CFU/ml, 18 hours, 37° C.
[6] = Pseud. aeruginosa EP-01, agar dilution, about 10^6 CFU/ml, 18 hours, 37° C.
[7] = Escher. coli NIHJ, agar dilution, about 10^6 CFU/ml, 18 hours, 37° C.
[8] = Klebsiella pneumoniae, EK6, 18 h, read-out: MIC
[9] = Staphylococcus aureus, 209P, 18 h, Staph. aureus 209-P, agar dilution, about 10^6 CFU/ml, 18 hours, 37° C., read-out: MIC
[10] = Serratia marcescens, ES75, 18 h, Ser. marcescens ES-75, agar dilution, about 10^6 CFU/ml, 18 hours, 37° C., read-out: MIC
[11] = Morganella morganii, EP14, 18 h, about 10^6 CFU/ml, read-out: MIC
[12] = Staphylococcus aureus, 209P, 18 h
[13] = Serratia marcescens, ES75, 18 h

| Structure (SMILES) | MIC (Kleb. pneumoniae EK-6) [µg/mL] | MIC (Pseud. aeruginosa EP-01; [2]) [µg/mL] | MIC (Staph. aureus 209-P; [3]) [µg/mL] | MIC (Escher. coli NIHJ; [4]) [µg/mL] | MIC (Ser. marcescens ES-75; [5]) [µg/mL] | MIC ([1]; about 10^6 CFU/ml, 18 hours) [µg/mL] | MIC (Pseud. aeruginosa EP-01; [6]) [µg/mL] | MIC (Escher. coli NIHJ; [7]) [µg/mL] | MIC (Kleb. pneumoniae EK-6; [8]) [µg/mL] | MIC (Staph. aureus 209-P; [9]) [µg/mL] | MIC (Ser. marcescens ES-75; [10]) [µg/mL] | MIC [1, 11] [µg/mL] | also measured |
| --- | --- | --- | --- | --- | --- | --- | --- | --- | --- | --- | --- | --- | --- |
| NC(=O)C1CC[N+](C/C=C/C2=C(C(=O)[O-])N3C(=O)[C@@H](NC(=O)/C(=N\OCF)c4nsc(N)n4)[C@H]3SC2)(CCO)CC1 (single isomer, unassigned) [Example 2-2, 7β-[2-(5-Amino-1,2,4-thiadiazol-3-yl)-(Z)-2-fluoromethoxyiminoacetamido]-3-[(E)-3-[1-(2-hydroxyethyl)-4-carbamoyl-1-piperidinio]-1-propen-1-yl]-3-cephem-4-carboxylate] | ≤ 0.025 | 1.56 (≈ 2.55 µM) | 0.4 (≈ 0.653 µM) | ≤ 0.025 | ≤ 0.025 | ≤ 0.025 | – | – | – | – | – | – | – |
| C[N+]1(C/C=C/C2=C(C(=O)[O-])N3C(=O)[C@@H](NC(=O)/C(=N\OCF)c4nsc(N)n4)[C@H]3SC2)C[C@H](O)C[C@@H]1CO (single isomer, unassigned) [Example 6-2, 7β-[2-(5-Amino-1,2,4-thiadiazol-3-yl)-(Z)-2-fluoromethoxyiminoacetamido]-3-[(E)-3-(4R-hydroxy-2R-hydroxymethyl-1-methyl-1-pyrrolidinio)-1-propen-1-yl]-3-cephem-4-carboxylate] | ≤ 0.025 | – | 0.1 (≈ 0.175 µM) | – | ≤ 0.025 | ≤ 0.025 | 0.8 (≈ 1.4 µM) | ≤ 0.025 | – | – | – | – | – |
| Nc1nc(/C(=N/OCF)C(=O)N[C@@H]2C(=O)N3C(C(=O)[O-])=C(/C=C/C[N+]4(CCO)C[C@H](O)C[C@H]4CO)CS[C@H]23)ns1 (single isomer, unassigned) [Example 7-1, 7β-[2-(5-Amino-1,2,4-thiadiazol-3-yl)-(Z)-2-fluoromethoxyiminoacetamido]-3-[(E)-3-[4R-hydroxy-1-(2-hydroxyethyl)-2S-hydroxymethyl-1-pyrrolidinio]-1-propen-1-yl]-3-cephem-4-carboxylate] | – | 0.8 (≈ 1.33 µM) | – | ≤ 0.025 | – | – | – | – | ≤ 0.025 | 0.2 (≈ 0.332 µM) | ≤ 0.025 | ≤ 0.025 | – |
| CC(C(N)=O)[N+]1(C/C=C/C2=C(C(=O)[O-])N3C(=O)[C@@H](NC(=O)/C(=N\OCF)c4nsc(N)n4)[C@H]3SC2)CCCC1 (single isomer, unassigned) [Example 13-2] | ≤ 0.025 | – | 0.2 (≈ 0.343 µM) | – | 0.05 (≈ 0.0858 µM) | 0.05 (≈ 0.0858 µM) | 1.56 (≈ 2.68 µM) | ≤ 0.025 | – | – | – | – | – |
| Nc1nc(/C(=N/OCF)C(=O)N[C@@H]2C(=O)N3C(C(=O)[O-])=C(/C=C/C[N+]4(CC(O)CO)CCCC4)CS[C@H]23)ns1 (single isomer, unassigned) [Example 23-1] | – | 1.56 (≈ 2.66 µM) | – | ≤ 0.025 | – | – | – | – | ≤ 0.025 | 0.2 (≈ 0.342 µM) | ≤ 0.025 | ≤ 0.025 | – |
| Nc1nc(/C(=N/OCF)C(=O)N[C@@H]2C(=O)N3C(C(=O)[O-])=C(/C=C/C[N+]4(CC(O)CO)CCCC4)CS[C@H]23)ns1 (single isomer, unassigned) [Example 23-2] | ≤ 0.025 | – | 0.2 (≈ 0.342 µM) | – | ≤ 0.025 | 0.05 (≈ 0.0854 µM) | 1.56 (≈ 2.66 µM) | 0.05 (≈ 0.0854 µM) | – | – | – | – | – |
| CN1CCC[N+]1(C)C/C=C/C1=C(C(=O)[O-])N2C(=O)[C@@H](NC(=O)/C(=N\OCF)c3nsc(N)n3)[C@H]2SC1 (single isomer, unassigned) [Example 122-A, 7β-[2-(5-Amino-1,2,4-thiadiazol-3-yl)-(Z)-2-fluoromethoxyiminoacetamido]-3-[(E)-3-(1,2-dimethyl-1-pyrazolidinio)-1-propen-1-yl]-3-cephem-4-carboxylate] | – | 0.8 (≈ 1.48 µM) | – | ≤ 0.025 | – | – | – | – | ≤ 0.025 | 0.2 (≈ 0.37 µM) | ≤ 0.025 | ≤ 0.025 | – |
| CN1CCC[N+]1(C)C/C=C/C1=C(C(=O)[O-])N2C(=O)[C@@H](NC(=O)/C(=N\OCF)c3nsc(N)n3)[C@H]2SC1 (single isomer, unassigned) [Example 122-B, 7β-[2-(5-Amino-1,2,4-thiadiazol-3-yl)-(Z)-2-fluoromethoxyiminoacetamido]-3-[(E)-3-(1,2-dimethyl-1-pyrazolidinio)-1-propen-1-yl]-3-cephem-4-carboxylate] | ≤ 0.025 | – | 0.1 (≈ 0.185 µM) | – | 0.05 (≈ 0.0925 µM) | ≤ 0.025 | 0.8 (≈ 1.48 µM) | ≤ 0.025 | – | – | – | – | – |
| CN1CCC[N+]1(C)C/C=C/C1=C(C(=O)[O-])N2C(=O)[C@@H](NC(=O)/C(=N\OCC#N)c3nsc(N)n3)[C@H]2SC1 (single isomer, unassigned) [Example 160-A] | – | 0.8 (≈ 1.46 µM) | – | ≤ 0.025 | – | – | – | – | ≤ 0.025 | 0.1 (≈ 0.183 µM) | 0.1 (≈ 0.183 µM) | 0.05 (≈ 0.0913 µM) | – |
| CN1CCC[N+]1(C)C/C=C/C1=C(C(=O)[O-])N2C(=O)[C@@H](NC(=O)/C(=N\OCC#N)c3nsc(N)n3)[C@H]2SC1 (single isomer, unassigned) [Example 160-B] | 0.05 (≈ 0.0913 µM) | – | 0.1 (≈ 0.183 µM) | – | 0.2 (≈ 0.365 µM) | 0.05 (≈ 0.0913 µM) | 0.8 (≈ 1.46 µM) | 0.05 (≈ 0.0913 µM) | – | – | – | – | – |
| CC(C)(O/N=C(\C(=O)N[C@@H]1C(=O)N2C(C(=O)[O-])=C(C[n+]3ccccc3)CS[C@H]12)c1csc(N)n1)C(=O)O [CAZ, Cefatazidime, reference compound] | – | – | – | 0.2 (≈ 0.366 µM) | – | – | – | – | 0.1 (≈ 0.183 µM) | – | – | 0.1 (≈ 0.183 µM) | MIC (Pseud. aeruginosa EP-01; Pseudomonas aeruginosa, EP01, 18 h): 1.56 µg/mL (≈ 2.85 µM); MIC (Staph. aureus 209-P; [12]): 6.25 µg/mL (≈ 11.4 µM); MIC (Ser. marcescens ES-75; [13]): 0.2 µg/mL (≈ 0.366 µM) |
| CN(C)CCn1nnnc1SCC1=C(C(=O)O)N2C(=O)[C@@H](NC(=O)Cc3csc(N)n3)[C@H]2SC1 [CTM, Cefotiam, reference compound] | – | > 100 | – | 0.1 (≈ 0.19 µM) | – | – | – | – | 0.1 (≈ 0.19 µM) | 0.2 (≈ 0.38 µM) | 6.25 (≈ 11.9 µM) | 0.2 (≈ 0.38 µM) | – |
| CC[N+](C)(C/C=C/C1=C(C(=O)[O-])N2C(=O)[C@@H](NC(=O)/C(=N\OCF)c3nsc(N)n3)[C@H]2SC1)CC(N)=O (stereo partly drawn) [Example 1, 7β-[2-(5-Amino-1,2,4-thiadiazol-3-yl)-(Z)-2-fluoromethoxyiminoacetamido]-3-[(E)-3-(carbamoylmethylethylmethylammonio)-1-propen-1-yl]-3-cephem-4-carboxylate] | – | – | – | – | – | – | – | – | – | – | – | – | MIC (Kleb. pneumoniae EK-6; Klebsiella pneumoniae, EK6, read-out: MIC): ≤ 0.025 µg/mL; MIC (Pseud. aeruginosa EP-01; Pseudomonas aeruginosa, EP01, Pseud. aeruginosa EP-01, agar dilution, about 10^6 CFU/ml, 18 hours, 37° C., read-out: MIC): 0.8 µg/mL (≈ 1.44 µM); MIC (Staph. aureus 209-P; [12]): 0.2 µg/mL (≈ 0.359 µM); MIC (Escher. coli NIHJ; Escherichia coli, 18 h): ≤ 0.025 µg/mL; MIC (Ser. marcescens ES-75; [13]): 0.1 µg/mL (≈ 0.18 µM); MIC ([1]; EP14, about 10^6 CFU/ml, 18 hours, read-out: MIC): ≤ 0.025 µg/mL |
| CC(O)C[N+](C)(C)C/C=C/C1=C(C(=O)[O-])N2C(=O)[C@@H](NC(=O)/C(=N\OCF)c3nsc(N)n3)[C@H]2SC1 (stereo partly drawn) [Example 4, 7β-[2-(5-Amino-1,2,4-thiadiazol-3-yl)-(Z)-2-fluoromethoxyiminoacetamido]-3-[(E)-3-[(2-hydroxypropyl)dimethylammonio]-1-propen-1-yl]-3-cephem-4-carboxylate] | – | 0.8 (≈ 1.47 µM) | – | 0.05 (≈ 0.092 µM) | – | – | – | – | ≤ 0.025 | 0.4 (≈ 0.736 µM) | 0.1 (≈ 0.184 µM) | 0.05 (≈ 0.092 µM) | – |
| C[C@@H](CO)[N+](C)(C)C/C=C/C1=C(C(=O)[O-])N2C(=O)[C@@H](NC(=O)/C(=N\OCC#N)c3nsc(N)n3)[C@H]2SC1 [Example 148] | – | 1.56 (≈ 2.83 µM) | – | – | – | – | – | – | 0.05 (≈ 0.0908 µM) | 0.4 (≈ 0.726 µM) | 0.05 (≈ 0.0908 µM) | 0.1 (≈ 0.182 µM) | – |
